# Experimental data reported in patent US7183306B2, “Pyrazole derivatives” (Astellas Pharma Inc., priority 2002, dated 2007).
# Legend:
# [1] = target: T1, COX-II (Homo sapiens, UniProt P35354); assay: Whole blood assay for COX-II (LPS-induced PGE2 production); assay type: cell-based; details: LPS 24 hrs at 37° C., inhibition of PGE2 production
# T1 construct: incubation of the blood with 10 μl of 5 mg/ml lipopolysaccharide for 24 hrs at 37° C. for induction of COX-II; from tissue; host or cells: heparinized fresh human whole blood from volunteers, LPS-stimulated
# T1 sequence (P35354 18-604): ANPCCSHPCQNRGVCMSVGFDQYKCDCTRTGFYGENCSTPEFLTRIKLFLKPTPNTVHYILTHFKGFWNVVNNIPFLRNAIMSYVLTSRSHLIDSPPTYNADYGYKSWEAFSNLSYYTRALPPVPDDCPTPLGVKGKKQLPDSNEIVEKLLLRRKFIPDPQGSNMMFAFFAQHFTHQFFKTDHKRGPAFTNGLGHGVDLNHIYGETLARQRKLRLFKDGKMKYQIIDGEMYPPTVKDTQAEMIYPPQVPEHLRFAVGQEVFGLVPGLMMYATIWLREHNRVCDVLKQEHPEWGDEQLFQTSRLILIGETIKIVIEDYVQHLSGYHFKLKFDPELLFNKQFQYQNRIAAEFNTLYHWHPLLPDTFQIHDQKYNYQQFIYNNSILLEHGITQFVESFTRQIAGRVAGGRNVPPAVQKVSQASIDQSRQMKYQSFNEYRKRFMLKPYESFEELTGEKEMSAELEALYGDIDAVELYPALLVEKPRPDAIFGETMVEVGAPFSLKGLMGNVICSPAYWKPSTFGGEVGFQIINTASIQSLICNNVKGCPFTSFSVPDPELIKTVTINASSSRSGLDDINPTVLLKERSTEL
# Description: Whole Blood Assay for COX-II
# Fresh blood was collected in heparinized tubes by syringe from volunteers with consent. The subjects had no apparent inflammatory conditions and had not taken any medication for at least 7 days prior to blood collection.
# 500 μl aliquots of human whole blood were incubated with either 2 μl dimethyl sulfoxide vehicle or 2 μl of a test compound at final concentrations for 15 min at 37° C. This was followed by incubation of the blood with 10 μl of 5 mg/ml lipopolysaccharide for 24 hrs at 37° C. for induction of COX-II. Appropriate PBS treatments (no LPS) were used as blanks. At the end of the incubation, the blood was centrifuged at 6000×g for 5 min at 4° C. to obtain plasma. A 100 μl aliquot of plasma was mixed with 400 μl methanol for protein precipitation. The supernatant was obtained by centrifuging at 6000×g for 5 min at 4° C. and was assayed for prostaglandin E2 (PGE2) using a radioimmunoassay kit after conversion of PGE2 to its methyl oximate derivative according to the manufacturer's procedure.
# For a test compound, the results were expressed as percent inhibition of PGE2 production relative to control incubations containing dimethyl sulfoxide vehicle. The data were analyzed by that a test compound at the indicated concentrations was changed log value and was applied simple linear regression. IC50 value was calculated by least squares method.
# [2] = system: arthritic rats (adjuvant arthritis); assay: Analgesic activity: effect on adjuvant arthritis in rats (Randall-Selitto pain threshold); assay type: in vivo, Lewis rats; details: Rattus norvegicus, single dose, pain threshold of left hind paw 2 hrs after administration, threshold pressure of treated vs non-treated rats, ratio of 1.5 considered effective, read-out: The coefficient of analgesic
# [3] = target: T2, COX-I (Homo sapiens, UniProt P23219); assay: Whole blood assay for COX-I (TXB2 production); assay type: cell-based
# T2 construct: Fresh blood was collected by syringe without anticoagulants from volunteers with consent; from tissue; host or cells: fresh human whole blood from volunteers, allowed to clot
# T2 sequence (P23219 24-599): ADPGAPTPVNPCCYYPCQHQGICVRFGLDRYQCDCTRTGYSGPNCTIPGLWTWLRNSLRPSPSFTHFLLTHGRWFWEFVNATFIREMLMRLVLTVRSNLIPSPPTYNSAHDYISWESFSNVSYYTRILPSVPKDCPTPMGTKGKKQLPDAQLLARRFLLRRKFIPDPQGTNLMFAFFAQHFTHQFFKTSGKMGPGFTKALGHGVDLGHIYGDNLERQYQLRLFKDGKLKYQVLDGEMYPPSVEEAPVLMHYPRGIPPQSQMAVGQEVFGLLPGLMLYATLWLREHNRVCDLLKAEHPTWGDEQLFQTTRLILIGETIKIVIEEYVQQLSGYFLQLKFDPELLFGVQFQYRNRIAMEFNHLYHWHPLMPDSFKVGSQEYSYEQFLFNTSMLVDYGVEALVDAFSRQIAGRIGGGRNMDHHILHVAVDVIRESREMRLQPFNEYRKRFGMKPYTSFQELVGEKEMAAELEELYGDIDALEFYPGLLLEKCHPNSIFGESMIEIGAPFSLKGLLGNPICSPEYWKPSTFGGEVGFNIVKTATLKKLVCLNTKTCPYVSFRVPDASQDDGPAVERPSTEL
# Description: [B] Inhibiting Activity Against COX-I and COX-II (Whole Blood Assay) (i) Test Metho: Whole Blood Assay for COX-I
# Fresh blood was collected by syringe without anticoagulants from volunteers with consent. The subjects had no apparent inflammatory conditions and had not taken any medication for at least 7 days prior to blood collection.
# 500 μl Aliquots of human whole blood were immediately incubated with 2 μl of either dimethyl sulfoxide vehicle or a test compound at final concentrations for 1 hr at 37° C. to allow the blood to clot. Appropriate treatments (no incubation) were used as blanks. At the end of the incubation, 5 μl of 250 mM Indomethacin was added to stop the reaction. The blood was centrifuged at 6000×g for 5 min at 4° C. to obtain serum. A 100 μl aliquot of serum was mixed with 400 μl methanol for protein precipitation. The supernatant was obtained by centrifuging at 6000×g for 5 min at 4° C. and was assayed for TXB2 using an enzyme immunoassay kit according to the manufacturer's procedure. For a test compound, the results were expressed as percent inhibition of thromboxane B2(TXB2) production relative to control incubations containing dimethyl sulfoxide vehicle.
# The data were analyzed by that a test compound at the indicated concentrations was changed log value and was applied simple linear regression. IC50 value was calculated by least squares method.
melting point,IC50 [1],IC50 [3],Compound,response vs control in vivo at 3.2 mg/kg [2]
141.5 to 142.1 °C,> 100 nM,< 10 nM,COc1ccc(-n2nc(C(F)F)cc2-c2ccc(OCCNC(N)=O)cc2)cn1 [Example 250],≥ 150%
109.8 to 110.2 °C,> 100 nM,< 10 nM,COc1ccc(-n2nc(C(F)(F)F)cc2-c2ccc(OCCNC(C)=O)cc2)cc1 [Example 254],≥ 150%
